# Assay results as given in US20240361338A1, “DIAGNOSIS AND TREATMENT OF ECTOPIC ENDOMETRIOSIS” (FERRING B.V., priority 2021, published 2024).
# Experiments:
# AKT = experiment: Western blot of P-AKT in E-MSC-HUVEC cocultures; format: cell-based, human; details: 100 nM quinagolide 24 h
# Method: FIG. 6: Quinagolide effect on AKT activation. A: Representative western blot analysis and quantification of AKT levels in eutopic and ectopic EMSCs treated for 48 h with 100 nM quinagolide (Q), compared to untreated cells (CTL). B: Representative western blot analysis and quantification of P-AKT levels, normalized to AKT expression, in eutopic and ectopic EMSCs treated for 48 h with 100 nM quinagolide (Q), respect to untreated cells (CTL). C: Representative western blot analysis and quantification of P-AKT levels in HUVECs, ectopic […] basal), and in […] co-culture with HUVECs, treated or not for 24 h with 100 nM quinagolide (Q100 nM). Data are represented as mean±SD of at least two independent experiments, performed on different EMSC lines, and normalized to Vinculin and to untreated cells (CTL). One-way ANOVA was performed: *=p<0.05 and **=p<0.001 vs CTL. Cell pellets were lysed at 4° C. for 15 minutes in RIPA buffer supplemented with protease and phosphatase inhibitors cocktail and PMSF (Sigma-Aldrich). Proteins were quantified using Bradford solution following the manufacturer procedures (Bio-Rad Inc., Berkely, CA, USA) and aliquots of cell lysates containing 50 μg of proteins were run on 4-12% Mini-Protean TGX Stain-Free Gels (Bio-Rad) under reducing conditions and transferred onto PVDF membrane filters using the iBLOT2 system (Life Technologies). […]
# ectopic EMSCs = experiment: BrdU cell proliferation assay on E-MSCs; format: cell-based, human; details: different concentrations, after 24 hours
# Method: FIG. 3: Quinagolide effect on EMSCs apoptosis and proliferation. A: Quinagolide concentration-response curve on ectopic EMSCs in both apoptosis (N=1) and proliferation (N=2) assays. B: Effect of two selected quinagolide doses (10^−5 and 10^−7M) on HUVECs (N=1) and ectopic E-MSCs (N=3) apoptosis and proliferation assays (N=2). Data are represented as mean±SD of the indicated number of experiments and normalized to untreated cells (Control). Cells were plated in growth medium at a concentration of 2,500 HUVECs/well and 3,000 E-MSCs/well in a 96-multiwell plate. The day after quinagolide was added to the growth medium at different concentrations after 24 hours. Deoxyribonucleic acid synthesis was detected as incorporation of 5-bromo-2-deoxyuridine (BrdU) into the cellular DNA after 48 hours from cell plaiting, using an enzyme-linked assay kit (Chemicon). Untreated cells were used as control. Data are expressed as the mean±standard deviation (SD) of the media of absorbance of at least three different experiments and normalized to control.
# dopamine D2 = dopamine D2 (Homo sapiens, UniProt P14416); details: Igbokwe et al, 2009; read-out: EC50 as D2 agonist; cited from earlier work
# Chain of dopamine D2 (P14416 1-414 isoform P14416-2): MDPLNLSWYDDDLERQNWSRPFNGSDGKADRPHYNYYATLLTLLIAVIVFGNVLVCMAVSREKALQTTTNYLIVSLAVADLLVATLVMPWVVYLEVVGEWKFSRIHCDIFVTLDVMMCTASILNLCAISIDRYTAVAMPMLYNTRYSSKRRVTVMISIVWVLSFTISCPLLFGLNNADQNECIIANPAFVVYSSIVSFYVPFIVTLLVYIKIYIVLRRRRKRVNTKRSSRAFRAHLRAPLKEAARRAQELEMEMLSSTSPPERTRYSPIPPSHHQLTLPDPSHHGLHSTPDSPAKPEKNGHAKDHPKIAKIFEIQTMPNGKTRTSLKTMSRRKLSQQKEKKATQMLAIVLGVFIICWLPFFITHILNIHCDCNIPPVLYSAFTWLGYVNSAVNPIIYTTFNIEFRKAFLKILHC
smiles,measurement,setting,value
"CCCN1C[C@@H](NS(=O)(=O)N(CC)CC)C[C@@H]2Cc3c(O)cccc3C[C@H]21 [quinagolide, N,N-diethyl-N′-[(3S,4aS,10aR)-6-hydroxy-1-propyl-1,2,3,4,4a,5,10,10a-octahydrobenzo[g]quinolin-3-yl]sulfamide]",AKT phosphorylation,AKT,reduced
same,proliferation of E-MSCs (BrdU),ectopic EMSCs,did not affect proliferation
same,EC50,dopamine D2,58 pM
